Experimental findings from patent publication US20220288058A1, “COMBINATION THERAPY USING A MALT1 INHIBITOR AND A BTK INHIBITOR” (Janssen Pharmaceutica NV, priority 2021, published 2022) are described below.

“Also recorded” adds a separate entry of the source.

Data set [1] deals with OCI-LY10 human DLBCL xenografts. Briefly: Study 2: Compound B monotherapy efficacy, OCI-LY10 xenografts in NSG mice. It counts as in vivo, mouse. The settings on record: for TGI / ΔTGI: Study 2, Day 45; for animals succumbed to disease burden / animals removed from the study due to tumor progression: Study 2; for animals succumbed to disease burden: by 17 days into the 21-day treatment; for animals removed from the study due to tumor progression: by 21 days of treatment. Here is the method:
In efficacy study, Study 2, NSG female animals were injected SC into the right find flank with 5×10^6 OCI-LY10 cells in PBS containing 50% Matrigel™. On day 32, mice were randomized based on tumor volume (mean tumor volume of 207 mm^3) and treated orally once or twice daily with BTK inhibitor Compound B according to treatment schedule above (see Table 4) for 21 days. After the last dose on Day 53, blood was collected serially via submandibular vein sampling from 5 animals per time point per treatment group at 2, 4, 12, and 24 hours after dosing. Blood was collected in EDTA and plasma was obtained via centrifugation at 3000 rpm for 10 minutes. Samples were snap frozen and stored at […] for possible future analyses.
Tumor volume in SC models was calculated using the formula: tumor volume (mm^3)=(D×d^2/2); where “D” represents the larger diameter and “d” the smaller diameter of the tumor as determined by calliper measurements. Tumor volume data was graphed as the mean tumor volume f SEM.
The percent ΔTGI was defined as the difference between mean tumor burden of the treatment and control groups, calculated using the following formula: ([(TVc−TVc0)−(TVt−TVt0)]/(TVc−TVc0))×100, where “TVc” is the mean tumor burden of a given control group, “TVc0” is the mean initial tumor burden of a given control group, “TVt” is the mean tumor burden of the treatment group, and “TVt0” is the mean initial tumor burden of the treatment group. The percent tumor growth inhibition (TGI) was defined as the difference between mean tumor volumes of the treated and control groups, calculated as: ((TVc−TVt)/TVc)×100 where “TVc” is the mean tumor volume of the control group and “TVt” is the mean tumor volume of the treatment group. […] Johnson et al., Br J Cancer. 2001; 84(10):1424-1431.

Data set [2] can be described thus: Body weight and tolerability monitoring of OCI-LY10 tumor bearing NSG mice (Studies 2-4). It counts as in vivo. Here is the method: Subsequently animal body weight and tumor volume was monitored two to three times per week. Animals were monitored daily for clinical signs related to either compound toxicity or tumor burden (i.e., hind limb paralysis, lethargy, dyspnea, etc.).
Body weight changes of individual mice were calculated using the formula: ([W−W0]/W0)×100, where “W” represents mean body weight on a particular day, and “W0” represents body weight at initiation of treatment. Body weight was graphed as mean body weight change±SEM.

As a reminder, the TGI is how far tumour growth fell short of that in controls. Higher therefore signals a stronger effect on the tumour. Take `C=CC(=O)N[C@H]1CCC[C@H]1NC(=O)c1sc2nccc3c2c1NC(=O)N3c1cnc(CC(C)C)cc1C` (atropisomer, axis not shown) [Compound B, N-((1R,2S)-2-acrylamidocyclopentyl)-5-(S)-(6-isobutyl-4-methylpyridin-3-yl)-4-oxo-4,5-dihydro-3H-1-thia-3,5,8-triazaacenaphthylene-2-carboxamide]: the TGI worked out at 26% in data set [1] (Compound B 5 mg/kg BID po), 24% in data set [1] (Compound B 10 mg/kg QD po), 35% in data set [1] (Compound B 30 mg/kg QD po) and 78% in data set [1] (Compound B 50 mg/kg BID po). The ΔTGI in data set [1] (Compound B 5 mg/kg BID po) was 34%; in data set [1] (Compound B 10 mg/kg QD po), 30%; in data set [1] (Compound B 30 mg/kg QD po), 45%; in data set [1] (Compound B 50 mg/kg BID po), 102%. Further, the entries for the “animals succumbed to disease burden” value in data set [1] (Compound B 10 mg/kg QD) and in data set [1] (Compound B 100 mg/kg QD) were “two animals” and “a mouse”, respectively. Besides, the “animals removed from the study due to tumor progression” value was 4/10 in data set [1] (Compound B 5 mg/kg BID); 7/10 in data set [1] (Compound B 10 mg/kg QD); 1/10 in data set [1] (Compound B 15 mg/kg BID); 2/10 in data set [1] (Compound B 30 mg/kg QD); 3/10 in data set [1] (Compound B 100 mg/kg QD). Besides, the body weight result in data set [2] (Study 2, 3 weeks of treatment) is given as “no body weight loss was observed”. In data set [2] (Study 3, Compound B 30 mg/kg QD), the “animals found dead or taken off study due to negative clinical signs” value is recorded as “one animal”. Further, in data set [2] (Study 3 and Study 4, similar frequencies in vehicle group), the “body weight loss during the 3 weeks of treatment” value is “low level, transient body weight loss; also recorded: low level, transient, body weight loss”. Further, the “animals removed due to reaching the maximum allowed body weight loss of 20%” value in data set [2] (Study 4, Compound B 15 mg/kg) was “one each”. Also, the “animals died during the study” value in data set [2] (Study 4, Compound B 50 mg/kg) was “one animal”. For the same compound, the “tolerability in NSG mice” value in data set [2] (all dose levels tested, up to 50 mg/kg BID or 100 mg/kg QD) is listed as “well tolerated”.
